Source: patent US10000451B2, “MAP4K4 (HGK) inhibitors” (SRI INTERNATIONAL, priority 2015, dated 2018)
Blank lines part the entries; values can stand above or below the compound they belong to.

Legend:
[1] = target: MAP4K4 (Homo sapiens, UniProt O95819); test: MAP4K4 kinase assay (in-house); assay type: biochemical
From the text: Signaling pathways mediating anticancer activity. […] We established the MAP4K4 kinase assay in-house and confirmed that the compounds are indeed potent MAP4K4 inhibitors.

[2] = system: LNCaP; test: Prostate cancer cell proliferation assay; assay type: cell-based; details: Homo sapiens, 72 hours, read-out: IC50 against prostate cancer cell lines
From the text: (§1) The dose-response curves of cell growth inhibition were consistent.
(§2) Cell proliferation assays.

[3] = system: DU-145; test: Prostate cancer cell proliferation assay; assay type: cell-based; details: Homo sapiens; DU-145, 72 hours; read-out: IC50 against prostate cancer cell lines
From the text: as §1, §2

[4] = system: PC-3; test: Prostate cancer cell proliferation assay; assay type: cell-based; details: Homo sapiens; PC-3, 72 hours; read-out: IC50 against prostate cancer cell lines
From the text: as §1, §2

[5] = system: MDA-MB-231; test: Breast cancer cell line growth inhibition; assay type: cell-based; details: Homo sapiens; MDA-MB-231, triple negative; read-out: IC50 against breast cancer cell lines
From the text: (§3) Generally, their potency is positively correlated with MAP4K4 expression in cancer cell lines.

[6] = system: BT549; test: Breast cancer cell line growth inhibition; assay type: cell-based; details: Homo sapiens, BT-549; BT549, triple negative; read-out: IC50 against breast cancer cell lines
From the text: as §3

[7] = system: MCF-7; test: Breast cancer cell line growth inhibition; assay type: cell-based; details: Homo sapiens, MCF7; MCF-7, ER (+); read-out: IC50 against breast cancer cell lines
From the text: as §3

[8] = system: HS578T; test: Breast cancer cell line growth inhibition; assay type: cell-based; details: Homo sapiens, Hs-578T, triple negative, read-out: IC50 against breast cancer cell lines
From the text: as §3

[9] = system: T47D; test: Breast cancer cell line growth inhibition; assay type: cell-based; details: Homo sapiens, ER (+), read-out: IC50 against breast cancer cell lines
From the text: as §3

[10] = system: MOLT4; test: Activity against cancer cell lines; assay type: cell-based; details: Homo sapiens, MOLT-4
From the text: (§4) Exemplary data is shown below.

[11] = system: ACHN; test: Activity against cancer cell lines; assay type: cell-based; details: Homo sapiens
From the text: as §4

[12] = system: A498; test: Activity against cancer cell lines; assay type: cell-based; details: Homo sapiens
From the text: as §4

[13] = system: HCT15; test: Activity against cancer cell lines; assay type: cell-based; details: Homo sapiens, HCT-15
From the text: as §4

[14] = system: SNB75; test: Activity against cancer cell lines; assay type: cell-based; details: Homo sapiens, SNB-75, SNB75
From the text: as §4

[15] = system: ADRRES; test: Activity against cancer cell lines; assay type: cell-based
From the text: as §4

[16] = system: NCIH522; test: Activity against cancer cell lines; assay type: cell-based; details: Homo sapiens, NCI-H522
From the text: as §4

[17] = system: HL60; test: Activity against cancer cell lines; assay type: cell-based
From the text: as §4

[18] = system: UO31; test: Activity against cancer cell lines; assay type: cell-based; details: Homo sapiens, UO-31
From the text: as §4

[19] = system: SKMEL2; test: Activity against cancer cell lines; assay type: cell-based; details: Homo sapiens, SK-MEL-2
From the text: as §4

[20] = system: SF539; test: Activity against cancer cell lines; assay type: cell-based; details: Homo sapiens, SF-539
From the text: as §4

[21] = system: OVCAR4; test: Activity against cancer cell lines; assay type: cell-based
From the text: as §4

[22] = system: MDAMB435; test: Activity against cancer cell lines; assay type: cell-based; details: Homo sapiens, MDA-MB-435
From the text: as §4

[23] = system: CAKI1; test: Activity against cancer cell lines; assay type: cell-based; details: Homo sapiens, CAKI-1
From the text: as §4

[24] = system: SF295; test: Activity against cancer cell lines; assay type: cell-based; details: Homo sapiens, SF-295
From the text: as §4

[25] = system: RXF393; test: Activity against cancer cell lines; assay type: cell-based; details: Homo sapiens, RXF 393
From the text: as §4

[26] = system: LOXIMVI; test: Activity against cancer cell lines; assay type: cell-based; details: Homo sapiens, LOX IMVI
From the text: as §4

[27] = system: M14; test: Activity against cancer cell lines; assay type: cell-based; details: Homo sapiens
From the text: as §4

[28] = system: MCF7; test: Activity against cancer cell lines; assay type: cell-based; details: Homo sapiens
From the text: as §4

[29] = system: SKMEL5; test: Activity against cancer cell lines; assay type: cell-based; details: Homo sapiens, SK-MEL-5
From the text: as §4

[30] = system: PC-3 prostate cancer xenografts; test: Antitumor activity in PC-3 xenografts; assay type: in vivo; details: nude mice
Procedure: In vivo efficacy studies: antitumor and antimetastatic effects against androgen-insensitive prostate cancer. Antitumor activity was tested in nude mice bearing aggressive, androgen-independent PC-3 prostate cancer xenografts. Docetaxel, a standard treatment for metastatic prostate cancer, was included in the study as a positive control. Docetaxel was administered at its maximum tolerated dose (MTD) via intraperitoneal (IP) (Q3Dx2; Monday, Friday). Mice were orally treated with compound in 0.5% HPC with 4 different treatment regimens. The control group was treated with vehicle (0.5% HPC) only. Treatment was initiated when average tumor volume reached 100 mm^3 (10 mice per group).
The compounds show a significant dose-dependent growth inhibition of prostate tumor. Docetaxel at its MTD (7.5 mg/kg; Q3Dx2) produces only 10-15% growth inhibition. […] Treatment with representative compounds (12.5, 25 and 50 mg/kg/day) caused a significant dose-dependent growth reduction of PC-3 tumors.

Sequence of MAP4K4 (O95819 whole entry): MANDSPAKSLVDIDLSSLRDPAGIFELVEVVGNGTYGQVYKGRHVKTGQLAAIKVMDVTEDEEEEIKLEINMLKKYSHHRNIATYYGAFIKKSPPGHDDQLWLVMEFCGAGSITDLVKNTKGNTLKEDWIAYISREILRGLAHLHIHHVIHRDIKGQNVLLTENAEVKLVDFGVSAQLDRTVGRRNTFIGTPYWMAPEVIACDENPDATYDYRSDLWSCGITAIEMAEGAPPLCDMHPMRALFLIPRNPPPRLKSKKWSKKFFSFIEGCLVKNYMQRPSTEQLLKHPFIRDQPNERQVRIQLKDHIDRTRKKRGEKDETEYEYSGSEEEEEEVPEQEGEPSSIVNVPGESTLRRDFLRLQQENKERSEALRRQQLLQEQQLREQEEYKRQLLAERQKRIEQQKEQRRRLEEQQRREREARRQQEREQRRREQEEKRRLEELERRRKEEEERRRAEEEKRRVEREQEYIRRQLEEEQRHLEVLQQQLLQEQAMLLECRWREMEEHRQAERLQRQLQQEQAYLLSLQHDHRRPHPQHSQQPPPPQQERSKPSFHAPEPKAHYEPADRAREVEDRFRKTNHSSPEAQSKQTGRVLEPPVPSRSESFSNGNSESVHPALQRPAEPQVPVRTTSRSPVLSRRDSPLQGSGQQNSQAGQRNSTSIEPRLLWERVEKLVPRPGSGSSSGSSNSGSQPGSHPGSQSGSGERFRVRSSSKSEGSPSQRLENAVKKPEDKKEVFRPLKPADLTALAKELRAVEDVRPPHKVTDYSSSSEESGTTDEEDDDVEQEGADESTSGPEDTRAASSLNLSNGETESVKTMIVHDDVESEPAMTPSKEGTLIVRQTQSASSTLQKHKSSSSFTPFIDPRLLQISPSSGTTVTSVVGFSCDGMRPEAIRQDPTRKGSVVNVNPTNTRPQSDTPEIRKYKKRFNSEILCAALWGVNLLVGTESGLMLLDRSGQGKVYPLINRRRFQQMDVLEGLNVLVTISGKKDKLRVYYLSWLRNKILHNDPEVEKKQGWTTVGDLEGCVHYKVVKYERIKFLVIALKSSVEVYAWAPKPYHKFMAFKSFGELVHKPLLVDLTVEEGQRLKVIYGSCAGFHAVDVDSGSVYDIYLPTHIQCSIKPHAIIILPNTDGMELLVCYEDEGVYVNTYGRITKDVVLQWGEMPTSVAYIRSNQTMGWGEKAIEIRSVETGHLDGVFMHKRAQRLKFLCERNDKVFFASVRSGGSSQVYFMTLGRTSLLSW

- IC50 [1]: 380 nM
Compound: COc1ccc2[nH]c(C(=O)c3ccc4[nH]cc(C)c4c3)cc2c1 [Cmpd 4, (5-methoxy-1H-indol-2-yl)(3-methyl-1H-indol-5-yl)methanone]

- IC50 [1]: 300 nM
Compound: COc1ccc2[nH]c(C(=O)c3ccc4[nH]ccc4c3)c(C)c2c1 [Cmpd 5, (1H-indol-5-yl)(5-methoxy-3-methyl-1H-indol-2-yl)methanone]

- IC50 [1]: 1700 nM
Compound: COc1ccc2[nH]c(C(=O)c3ccc4[nH]cc(Cl)c4c3)cc2c1 [Cmpd 9, (3-chloro-1H-indol-5-yl)(5-methoxy-1H-indol-2-yl)methanone]

- IC50 [1]: 1000 nM
Compound: Cc1c[nH]c2ccc(C(=O)c3cc4cc(O)ccc4[nH]3)cc12 [Cmpd 12, (5-hydroxy-1H-indol-2-yl)(3-methyl-1H-indol-5-yl)methanone]

- IC50 [2]: 21 nM
- IC50 [3]: 35 nM
- IC50 [4]: 17 nM
- IC50 [5]: 21 nM
- IC50 [6]: 17 nM
- IC50 [7]: 123 nM
- IC50 [8]: 16 nM
- IC50 [9]: 30 nM
Compound: COc1cc2cc(C(=O)c3ccc4[nH]ccc4c3)[nH]c2cc1OC [Cmpd 15, (5,6-dimethoxy-1H-indol-2-yl)(1H-indol-5-yl)methanone]

- IC50 [2]: 9 nM
- IC50 [3]: 14 nM
- IC50 [4]: 6 nM
- IC50 [1]: 260 nM
- IC50 [5]: 10 nM
- IC50 [6]: 9 nM
- IC50 [7]: 53 nM
- IC50 [8]: 10 nM
- IC50 [9]: 17 nM
Compound: COc1ccc2[nH]c(C(=O)c3ccc4[nH]ncc4c3)cc2c1 [Cmpd 17, (1H-indazol-5-yl)(5-methoxy-1H-indol-2-yl)methanone]

- IC50 [1]: 9 nM
Compound: CCc1n[nH]c2ccc(C(=O)c3cc4cc(OC)ccc4[nH]3)cc12 [Cmpd 19, (3-ethyl-1H-indazol-5-yl)(5-methoxy-1H-indol-2-yl)methanone]

- IC50 [1]: 310 nM
Compound: COc1ccc2[nH]c(C(=O)c3ccc4[nH]nc(Cl)c4c3)cc2c1 [Cmpd 20, (3-chloro-1H-indazol-5-yl)(5-methoxy-1H-indol-2-yl)methanone]

- IC50 [1]: 100 nM
Compound: COc1ccc2[nH]c(C(=O)c3ccc4[nH]nc(F)c4c3)cc2c1 [Cmpd 21, (3-fluoro-1H-indazol-5-yl)(5-methoxy-1H-indol-2-yl)methanone]

- IC50 [1]: 21000 nM
Compound: COc1ccc2[nH]c(C(=O)c3ccc4[nH]nc(CN5CCOCC5)c4c3)cc2c1 [Cmpd 22, (5-methoxy-1H-indol-2-yl)(3-(morpholinomethyl)-1H-indazol-5-yl)methanone]

- IC50 [2]: 28 nM
- IC50 [3]: 53 nM
- IC50 [4]: 20 nM
- IC50 [1]: 410 nM
- IC50 [5]: 28 nM
- IC50 [6]: 23 nM
- IC50 [7]: 114 nM
- IC50 [8]: 29 nM
- IC50 [9]: 44 nM
Compound: COc1ccc2[nH]c(C(=O)c3ccc4[nH]ncc4c3)c(Cl)c2c1 [Cmpd 23, (3-chloro-5-methoxy-1H-indol-2-yl)(1H-indazol-5-yl)methanone]

- IC50 [1]: 12000 nM
Compound: COc1ccc2[nH]c(C(=O)c3ccc4[nH]ncc4c3)cc2c1Cl [Cmpd 24, (4-chloro-5-methoxy-1H-indol-2-yl)(1H-indazol-5-yl)methanone]

- IC50 [1]: 650 nM
Compound: COc1cccc2cc(C(=O)c3ccc4[nH]nc(C)c4c3)[nH]c12 [Cmpd 28, (7-methoxy-1H-indol-2-yl)(3-methyl-1H-indazol-5-yl)methanone]

- IC50 [1]: 650 nM
Compound: COc1cccc2[nH]c(C(=O)c3ccc4[nH]nc(C)c4c3)cc12 [Cmpd 29, (4-methoxy-1H-indol-2-yl)(3-methyl-1H-indazol-5-yl)methanone]

- IC50 [1]: 13 nM
Compound: COc1cc2cc(C(=O)c3ccc4[nH]nc(C)c4c3)[nH]c2cn1 [Cmpd 31, (5-methoxy-1H-pyrrolo[2,3-c]pyridin-2-yl)(3-methyl-1H-indazol-5-yl)methanone]

- IC50 [1]: 46 nM
Compound: COc1ccc2[nH]c(C(=O)c3cnc4[nH]ccc4c3)cc2c1 [Cmpd 33, (5-methoxy-1H-indol-2-yl)(1H-pyrrolo[2,3-b]pyridin-5-yl)methanone]

- IC50 [1]: 7500 nM
Compound: COc1ccc2[nH]c(C(=O)c3ccc4[nH]c(C(F)(F)F)nc4c3)cc2c1 [Cmpd 35, (5-methoxy-1H-indol-2-yl)(2-(trifluoromethyl)-1H-benzo[d]imidazol-5-yl)methanone]

- IC50 [1]: 570 nM
Compound: COc1ccc2[nH]c(C(=O)c3ccc4[nH]nnc4c3)cc2c1 [Cmpd 36, (1H-benzo[d][1,2,3]triazol-5-yl)(5-methoxy-1H-indol-2-yl)methanone]

- IC50 [10]: 120 nM
- IC50 [11]: 760 nM
- IC50 [12]: 330 nM
- IC50 [13]: 68 nM
- IC50 [14]: 110 nM
- IC50 [15]: 64 nM
- IC50 [16]: 100 nM
- IC50 ([17]; HL60): 78 nM
- IC50 ([17]; Homo sapiens, HL-60, HL60): 81 nM
- IC50 [18]: 690 nM
- IC50 [19]: 580 nM
- IC50 [20]: 170 nM
- IC50 ([21]; Homo sapiens, OVCAR-4, OVCAR4): 150 nM
- IC50 ([21]; OVCAR4): 110 nM
- IC50 [22]: 66 nM
- IC50 [23]: 67 nM
- IC50 [24]: 250 nM
- IC50 [25]: 140 nM
- IC50 [26]: 440 nM
- IC50 [27]: 110 nM
- IC50 [28]: 85 nM
- IC50 [29]: 210 nM
Compound: COc1ccc2[nH]c(C(=NO)c3ccc4[nH]ccc4c3)cc2c1 [Cmpd 37, (1H-indol-5-yl)(5-methoxy-1H-indol-2-yl)methanone oxime]

Compound: CC(=O)O[C@@]12CO[C@@H]1C[C@H](O)[C@@]1(C)C(=O)[C@H](O)C3=C(C)[C@@H](OC(=O)[C@H](O)[C@@H](NC(=O)OC(C)(C)C)c4ccccc4)C[C@@](O)([C@@H](OC(=O)c4ccccc4)[C@H]21)C3(C)C [Docetaxel, reference compound]
- IC50 [2]: 31 nM
- IC50 [3]: 72 nM
- IC50 [4]: 95 nM
- tumor growth inhibition ([30]; PC-3 xenografts, MTD 7.5 mg/kg IP Q3Dx2): 10-15%
- lethal toxicity ([30]; 7.5 mg/kg IP, after the 4th injection): mice died on Day 13 due to lethal toxicity

- IC50 [5]: 153 nM
- IC50 [6]: 151 nM
- IC50 [7]: 156 nM
- IC50 [8]: 148 nM
- IC50 [9]: 152 nM
Compound: CC(=O)O[C@H]1C(=O)[C@@]2(C)[C@H]([C@H](OC(=O)c3ccccc3)[C@]3(O)C[C@H](OC(=O)[C@H](O)[C@@H](NC(=O)c4ccccc4)c4ccccc4)C(C)=C1C3(C)C)[C@]1(OC(C)=O)CO[C@@H]1C[C@@H]2O [Paclitaxel, reference compound]
